From the supplement of paper PMC11061612 come the findings set out here.

Holding throughout (assay): Bliss excess, mean over the matrix (fraction); higher = more synergy
The subject of assay [1] is ESS-1 (Other Solid Carcinomas). The method, boiled down:
(§1)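 Bliss excess equals the observed combination effect minus the expected value EA + EB − EA·EB, where EA and EB are the effects of each agent alone. Combination Emax is the second-highest inhibition within the matrix. Inhibition was scaled from CellTiter-Glo 2.0 luminescence, with 0 set by vehicle wells and 1 by blank wells, after 72 hours of two-drug dosing of cells plated in 1536-well plates.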

The next assay concerns KS-1 (Glioblastoma). The method, boiled down:
as §1

Assay [2] concerns KYAE-1 (Esophageal Adenocarcinoma). Put shortly:
as §1

Another assay deals with LOXIMVI (Melanoma). The method, boiled down:
as §1

Assay [3] deals with OVCAR-5 (Ovarian Carcinoma). The method, boiled down: as §1
The subject of assay [4] is SAS (Oral Cavity Carcinoma). The method, boiled down: as §1
The test system of assay [5] is SNU-16 (Gastric Carcinoma). The method, boiled down: as §1
Assay [6] deals with SW1710 (Bladder Carcinoma). Put shortly: as §1
Assay [7] deals with TGBC1TKB (Biliary Tract Carcinoma). The method, boiled down: as §1
Assay [8] deals with WSU-NHL (B-Cell Non-Hodgkin's Lymphoma). The method, boiled down: as §1
In assay [9] the test system is YAPC (Pancreatic Carcinoma). The method, boiled down:
as §1

In assay [10] the test system is BFTC-909 (Kidney Carcinoma). Put shortly: as §1
Assay [11] has as its system CAL-33 (Oral Cavity Carcinoma). The method, boiled down:
as §1

The test system of assay [12] is OE21 (Esophageal Squamous Cell Carcinoma). Put shortly:
as §1

Take `C[C@@H](Nc1cc(F)cc(F)c1)c1cc(C(=O)N(C)C)cc2c(=O)cc(N3CCOCC3)oc12` [AZD8186] + CC(=O)c1c(C)c2cnc(Nc3ccc(N4CCNCC4)cn3)nc2n(C2CCCC2)c1=O [Palbociclib] (first compound max 10 µM, 7x7, partner max 10 µM): the Bliss excess was -0.0114 in assay [1]; 0.0069 in the assay with KS-1 (Glioblastoma); -0.0036 in assay [2]; 0.0909 in the assay with LOXIMVI (Melanoma); 0.0014 in assay [3]; -0.0006 in assay [4]. The Bliss excess in [5] was 0.0891; in assay [6], 0.0531; in [7], 0.0239; in assay [8], -0.0144; in assay [9], -0.0101.
With `C[C@@H](Oc1cc(-c2cnn(C3CCNCC3)c2)cnc1N)c1c(Cl)ccc(F)c1Cl` [Crizotinib] + CC1=C(C(=CC=C1)Cl)NC(=O)C2=CN=C(S2)NC3=CC(=NC(=N3)C)N4CCN(CC4)CCO [Dasatinib] (first compound max 10 µM, 7x7, partner max 2 µM), the Bliss excess in assay [1] is 0.062; in the assay with KS-1 (Glioblastoma) it was 0.0499; in [2], 0; in the assay with LOXIMVI (Melanoma) it was 0.0145; in assay [3], 0.0338; in assay [4], -0.0059. The Bliss excess in [5] amounted to 0.0279; in assay [6], 0.031; in assay [7], 0.0435; in assay [8], 0.0202; in assay [9], 0.0219.
For the compound `CS(=O)(=O)CCNCc1ccc(-c2ccc3ncnc(Nc4ccc(OCc5cccc(F)c5)c(Cl)c4)c3c2)o1` [Lapatinib] + Cn1cnc2c(F)c(Nc3ccc(Br)cc3Cl)c(C(=O)NOCCO)cc21 [Selumetinib] (first compound max 10 µM, 7x7, partner max 10 µM), the Bliss excess is -0.0075 in assay [1]; -0.0387 with KS-1 (Glioblastoma); 0.0206 in assay [2]; -0.0701 in the assay with LOXIMVI (Melanoma); -0.0161 in [3]; -0.049 in [4]. The Bliss excess in assay [5] was -0.0169; in assay [6], -0.0077; in assay [7], 0.034; in assay [8], -0.0093; in assay [9], 0.0037.
As to `CS(=O)(=O)CCNCc1ccc(-c2ccc3ncnc(Nc4ccc(OCc5cccc(F)c5)c(Cl)c4)c3c2)o1` [Lapatinib] + NC1(c2ccc(-c3nc4ccn5c(=O)[nH]nc5c4cc3-c3ccccc3)cc2)CCC1 [MK-2206] (first compound max 10 µM, 7x7, partner max 10 µM), the Bliss excess in assay [10] was -0.0279; in assay [1], 0.005; with KS-1 (Glioblastoma), -0.0185; in assay [2] it was 0.0176; in the assay on LOXIMVI (Melanoma), 0.043; in assay [3], -0.0101. For the same compound, the Bliss excess in [4] was 0.0044; in assay [5], 0.0758; in assay [6] it was -0.0417; in assay [7], 0.0079; in assay [8] it was -0.0237; in assay [9] it was 0.0208.
For `O=C(c1cc(Cc2n[nH]c(=O)c3ccccc23)ccc1F)N1CCN(C(=O)C2CC2)CC1` [Olaparib] + CC1(C)CCC(CN2CCN(c3ccc(C(=O)NS(=O)(=O)c4ccc(NCC5CCOCC5)c([N+](=O)[O-])c4)c(Oc4cnc5[nH]ccc5c4)c3)CC2)=C(c2ccc(Cl)cc2)C1 [Venetoclax] (first compound max 10 µM, 7x7, partner max 1 µM), the Bliss excess in assay [1] was -0.0103; in the assay with KS-1 (Glioblastoma), -0.0442; in assay [2] it was -0.0116; with LOXIMVI (Melanoma), 0.0029; in [3], -0.061; in [4], -0.0168. Besides, the Bliss excess in assay [5] was 0.0258; in assay [6], -0.0606; in assay [7], -0.0666; in assay [8], 0.0238; in assay [9] it was -0.0282.
On to `O=C(c1cc(Cc2n[nH]c(=O)c3ccccc23)ccc1F)N1CCN(C(=O)C2CC2)CC1` [Olaparib] + COc1nnc2ccc(N3CCC(c4ccc(OCCN5CCN(C)C(=O)[C@H]5C)cc4)CC3)nn12 [AZD5153] (first compound max 10 µM, 7x7, partner max 1 µM), for which the Bliss excess in assay [1] is -0.0139; in the assay on KS-1 (Glioblastoma) it was -0.0205; in [2], -0.0202; in the assay with LOXIMVI (Melanoma), -0.0792; in assay [3] it was -0.0584; in [4], -0.0771. Moreover, the Bliss excess in assay [5] is -0.0066; in [6], 0.0021; in assay [7], -0.0322; in assay [8], -0.06; in [9], -0.0239.
Turning to `CCc1c2c(nc3ccc(O)cc13)-c1cc3c(c(=O)n1C2)COC(=O)[C@]3(O)CC` [SN-38] + O=C(c1cc(Cc2n[nH]c(=O)c3ccccc23)ccc1F)N1CCN(C(=O)C2CC2)CC1 [Olaparib] (first compound max 0.3 µM, 7x7, partner max 10 µM), the Bliss excess in [10] was 0.0897; in assay [11], 0.0519; in assay [1], 0.0735; in the assay on KS-1 (Glioblastoma), 0.0068; in assay [2], -0.0184; with LOXIMVI (Melanoma), 0.0214. In addition, the Bliss excess in [12] is -0.0198; in assay [3], -0.0161; in [4], 0.0501; in [5], 0.0005; in [6], 0.037; in assay [7] it was 0.0009. For the same compound, the values for the Bliss excess in assay [8] and in assay [9] were 0.044 and 0.0336, respectively.
As for `Cc1nc(-c2cn3c(n2)-c2ccc(-c4cnn(C(C)(C)C(N)=O)c4)cc2OCC3)n(C(C)C)n1` [Taselisib] + O=C(Nc1ccc2[nH]nc(-c3ccncc3)c2c1)[C@@H]1CCN(CC(=O)N2CCN(c3ccc(-c4ncccn4)cc3)CC2)C1 [SCH772984] (first compound max 10 µM, 7x7, partner max 5 µM), the Bliss excess in [1] was 0.0682; with KS-1 (Glioblastoma), 0.0097; in assay [2] it was -0.0018; in the assay on LOXIMVI (Melanoma) it was 0.091; in assay [3], 0.0022; in assay [4], 0.0999. The Bliss excess in assay [5] is 0.123; in assay [6], -0.0048; in assay [7] it was 0.0043; in assay [8], 0.037; in [9], 0.134.
In the case of `CC1(C)CCC(CN2CCN(c3ccc(C(=O)NS(=O)(=O)c4ccc(NCC5CCOCC5)c([N+](=O)[O-])c4)c(Oc4cnc5[nH]ccc5c4)c3)CC2)=C(c2ccc(Cl)cc2)C1` [Venetoclax] + CS(=O)(=O)CCNCc1ccc(-c2ccc3ncnc(Nc4ccc(OCc5cccc(F)c5)c(Cl)c4)c3c2)o1 [Lapatinib] (first compound max 1 µM, 7x7, partner max 10 µM), the Bliss excess in assay [1] is 0.0298; in the assay with KS-1 (Glioblastoma), -0.0411; in assay [2] it was 0.0085; in the assay on LOXIMVI (Melanoma) it was 0.007; in assay [3], -0.0479; in assay [4], -0.059. Further, the Bliss excess in assay [5] is 0.0168; in assay [6] it was -0.0415; in assay [7] it was -0.0308; in assay [8] it was 0.0482; in assay [9], -0.012.
